Some test systems named below: 786-0; ACHN; HT-29; IGROV-1; KM12; LOX IMVI; M14; Malme-3M; NCI-H226; OVCAR-3; OVCAR-4; RPMI-8226; RXF 393; SF-268; SF-295; SF-539; SNB-75; T47D; TK-10; SNB-78.
What all share (test): NCI tumour cell line growth inhibition, 48 h

SMILES strings stand for the structures.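 Assay format: 96-well plates, 48-hour exposure. Abbreviation: GI50, concentration required for 50% inhibition of growth.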 Active and inactive are the calls of the source. No stated cut-off is given here; in the data, active = GI50 up to about 1.1 µM and inactive = higher. A value given as a limit tells only on which side of the number the result lay.

As to `Cn1c(=S)c2nc(SCCN3CCCC3)[nH]c2n(C)c1=O`, the GI50 with 786-0, in the assay with ACHN, in the assay on HT-29, with IGROV-1, in the assay on KM12 and with LOX IMVI was > 100 µM (inactive) each time. For the same compound, the GI50 with M14, with Malme-3M, with NCI-H226, in the assay on OVCAR-3, in the assay with OVCAR-4 and with RPMI-8226 was > 100 µM (inactive) each time. The GI50 in the assay with RXF 393, with SF-268, in the assay on SF-295, in the assay on SF-539, in the assay with SNB-75 and in the assay on T47D was > 100 µM (inactive) throughout. Moreover, in the assay with TK-10, the GI50 was > 100 µM (inactive).
`CCN(CC)CCC(=O)N1CCc2c([nH]c3ccccc23)C1c1cccnc1` (stereo not given): the GI50 in the assay on 786-0, in the assay on ACHN, in the assay with HT-29, with IGROV-1, in the assay with KM12 and in the assay on LOX IMVI was > 100 µM (inactive) throughout. The GI50 with M14, in the assay with OVCAR-3, with OVCAR-4, with RPMI-8226, with SF-268 and with SF-295 was > 100 µM (inactive) throughout. Besides, the GI50 in the assay with SF-539, with SNB-75, in the assay with SNB-78 and in the assay with TK-10 was > 100 µM (inactive) each time.
Regarding `CC(=N\c1ccncc1)/C(C)=N/c1ccncc1`, the GI50 with 786-0 is 34.7 µM (inactive); in the assay with ACHN it was 14.5 µM (inactive); in the assay with HT-29, 19 µM (inactive); in the assay with IGROV-1 it was 17.3 µM (inactive); with KM12 it was 38.3 µM (inactive); in the assay on LOX IMVI, 19.5 µM (inactive). The GI50 is 18.7 µM (inactive) with M14; 17.6 µM (inactive) in the assay with Malme-3M; 34 µM (inactive) in the assay with NCI-H226; 15.4 µM (inactive) in the assay with OVCAR-3; 11.4 µM (inactive) with OVCAR-4; 21.1 µM (inactive) in the assay on RPMI-8226. Further, the GI50 in the assay with RXF 393 was 27.4 µM (inactive); in the assay on SF-268, 30.4 µM (inactive); in the assay on SF-295, 73.5 µM (inactive); with SF-539, 18.7 µM (inactive); in the assay with SNB-75 it was > 100 µM (inactive); with T47D it was 26.2 µM (inactive). Moreover, in the assay with TK-10, the GI50 is 35.8 µM (inactive).
For `CC(C)/C(Cl)=N\OC(=O)Nc1ccc(S(N)(=O)=O)cc1`, the GI50 is 17.3 µM (inactive) with 786-0; 13.9 µM (inactive) in the assay on ACHN; 22.4 µM (inactive) in the assay on HT-29; 17.5 µM (inactive) in the assay on IGROV-1; 18.4 µM (inactive) in the assay with KM12; 2.89 µM (inactive) in the assay with LOX IMVI. In addition, the GI50 in the assay on M14 was 8.13 µM (inactive); in the assay with Malme-3M, 4.59 µM (inactive); with NCI-H226, 21 µM (inactive); with OVCAR-3, 14.3 µM (inactive); in the assay with OVCAR-4, 25 µM (inactive); in the assay with RPMI-8226, 2.16 µM (inactive). For the same compound, the GI50 is 12.6 µM (inactive) in the assay with RXF 393; 23.9 µM (inactive) in the assay with SF-268; 15.7 µM (inactive) with SF-295; 16.8 µM (inactive) in the assay on SF-539; 9.33 µM (inactive) with SNB-75; 22.6 µM (inactive) in the assay on T47D. Moreover, in the assay on TK-10, the GI50 is 17.9 µM (inactive).
`COc1cc(C)cc2c1C(=O)C(Br)=CC2=O`: the GI50 is 3.92 µM (inactive) in the assay on 786-0; 2.52 µM (inactive) in the assay on ACHN; 8.22 µM (inactive) in the assay with HT-29; 17.7 µM (inactive) with IGROV-1; 15 µM (inactive) in the assay on KM12; 8.59 µM (inactive) in the assay on LOX IMVI. Besides, the GI50 in the assay on M14 was 3.3 µM (inactive); in the assay on Malme-3M, 2.1 µM (inactive); with NCI-H226, 17.4 µM (inactive); with OVCAR-3, 4.82 µM (inactive); in the assay with OVCAR-4, 2.75 µM (inactive); in the assay on RPMI-8226, 3.13 µM (inactive). Also, the GI50 in the assay on RXF 393 is 3.31 µM (inactive); with SF-268 it was 16.4 µM (inactive); in the assay with SF-295 it was 16.2 µM (inactive); with SF-539, 15.2 µM (inactive); in the assay with SNB-75, 16.9 µM (inactive); in the assay with T47D, 2.21 µM (inactive). Also, the GI50 with TK-10 is 2.49 µM (inactive).
As for `CCOC(=O)c1ccc(/N=C/c2ccc(N(CCC#N)S(=O)(=O)c3ccccc3)cc2C)cc1`, the GI50 was > 100 µM (inactive) in the assay on 786-0; 37.2 µM (inactive) with HT-29; > 100 µM (inactive) with IGROV-1; 18.7 µM (inactive) with KM12; 22.8 µM (inactive) with LOX IMVI; 25.4 µM (inactive) with M14. In addition, the GI50 with Malme-3M is 53.8 µM (inactive); with OVCAR-3, 54.7 µM (inactive); in the assay on OVCAR-4 it was 39.4 µM (inactive); in the assay with RPMI-8226, 36.2 µM (inactive); with SF-268 it was 26.1 µM (inactive); in the assay with SF-295, 26.5 µM (inactive). Further, the GI50 is 41.9 µM (inactive) in the assay on SF-539, 32.4 µM (inactive) in the assay on SNB-75, 33.2 µM (inactive) with SNB-78 and 49.3 µM (inactive) in the assay on TK-10.
Consider `Cc1ccc([C@H]2CC(=O)C[C@H](c3ccc(C)cc3)C23C(=O)c2ccccc2C3=O)cc1`, for which the GI50 was 17.1 µM (inactive) in the assay with 786-0; 63.4 µM (inactive) in the assay on ACHN; 67.3 µM (inactive) in the assay on HT-29; 40 µM (inactive) in the assay with IGROV-1; > 100 µM (inactive) with KM12; 9.98 µM (inactive) in the assay with LOX IMVI. For the same compound, the GI50 was 27.8 µM (inactive) in the assay on M14; 46.7 µM (inactive) in the assay on Malme-3M; 34.5 µM (inactive) with NCI-H226; 41.9 µM (inactive) in the assay with OVCAR-3; 18.6 µM (inactive) in the assay on OVCAR-4; 43.2 µM (inactive) in the assay on RPMI-8226. In addition, the GI50 was 19.1 µM (inactive) with RXF 393; 23 µM (inactive) in the assay on SF-268; 21.1 µM (inactive) in the assay on SF-295; 32.4 µM (inactive) in the assay with SF-539; 15.8 µM (inactive) in the assay with SNB-75; > 100 µM (inactive) in the assay with T47D. In addition, in the assay on TK-10, the GI50 is 22.2 µM (inactive).
As for `Cc1cc(N(C)C)c2ccccc2[n+]1CCCCCCCCCC[n+]1c(C)cc(N(C)C)c2ccccc21.[O-][Cl+3]([O-])([O-])[O-].[O-][Cl+3]([O-])([O-])[O-]`, the GI50 in the assay on 786-0 is 2.59 µM (inactive); in the assay on ACHN, 1.48 µM (inactive); in the assay on HT-29, 0.429 µM (active); in the assay on IGROV-1, 6.05 µM (inactive); in the assay with KM12 it was 0.282 µM (active); in the assay with LOX IMVI, 0.871 µM (active). Also, the GI50 in the assay on M14 was 2.33 µM (inactive); in the assay on Malme-3M, 11 µM (inactive); in the assay with NCI-H226, 3.33 µM (inactive); in the assay with OVCAR-3, 0.486 µM (active); with OVCAR-4, 1.63 µM (inactive); in the assay on RPMI-8226, 0.128 µM (active). Further, the GI50 in the assay on RXF 393 is 5.27 µM (inactive); with SF-268, 0.731 µM (active); in the assay on SF-295, 1.47 µM (inactive); in the assay on SF-539, 0.991 µM (active); with SNB-75, 0.47 µM (active); in the assay on T47D it was 0.428 µM (active). For the same compound, the GI50 with TK-10 was 3.29 µM (inactive).
In the case of `c1ccc2c(c1)Nc1c3ccccc3nc3cccc-2c13`, the GI50 with 786-0 was 0.638 µM (active); in the assay with ACHN it was 0.818 µM (active); with HT-29, 0.546 µM (active); with IGROV-1, 1.21 µM (inactive); in the assay on KM12, 1.12 µM (active); in the assay on LOX IMVI it was 0.877 µM (active). The GI50 with M14 was 1.76 µM (inactive); with Malme-3M it was 1.66 µM (inactive); with NCI-H226, 2.01 µM (inactive); in the assay on OVCAR-3 it was 1.46 µM (inactive); with OVCAR-4 it was 1.15 µM (inactive); with RPMI-8226, 0.587 µM (active). In addition, the GI50 with RXF 393 is 1.51 µM (inactive); with SF-268, 1.49 µM (inactive); in the assay with SF-295, 1.17 µM (inactive); with SF-539, 1.6 µM (inactive); in the assay with SNB-75, 1.65 µM (inactive); with T47D, 2.06 µM (inactive). Besides, the GI50 in the assay with TK-10 is 1.73 µM (inactive).
Take `O=C(O)c1c(Br)c(Br)c(Br)c(Br)c1C1c2ccc(O)cc2Oc2cc(O)ccc21`: the GI50 in the assay with 786-0, with ACHN, in the assay with HT-29, in the assay with IGROV-1, in the assay with KM12 and in the assay on LOX IMVI was > 100 µM (inactive) throughout. The GI50 in the assay on M14, in the assay with Malme-3M, in the assay on NCI-H226, with OVCAR-3, in the assay on OVCAR-4 and in the assay with RPMI-8226 was > 100 µM (inactive) in each case. Moreover, the GI50 with RXF 393, with SF-268, in the assay on SF-295, in the assay on SF-539, in the assay on SNB-75 and with T47D was > 100 µM (inactive) in each case. Besides, the GI50 in the assay on TK-10 is > 100 µM (inactive).
`Cc1c2cc[n+](C)cc2c(C)c2c1[nH]c1ccc(O)c(OCC(F)(F)F)c12`: the GI50 is 1.46 µM (inactive) in the assay with 786-0; 9.82 µM (inactive) in the assay with HT-29; 5.86 µM (inactive) in the assay on IGROV-1; 13 µM (inactive) in the assay with LOX IMVI; 6.22 µM (inactive) in the assay on M14; 1.63 µM (inactive) in the assay with Malme-3M. Further, the GI50 was 0.432 µM (active) in the assay with NCI-H226; 0.895 µM (active) with OVCAR-3; 1.26 µM (inactive) in the assay on OVCAR-4; 2.22 µM (inactive) in the assay with RPMI-8226; 0.164 µM (active) with SF-268; 0.839 µM (active) in the assay with SF-295. In addition, the GI50 is 2.04 µM (inactive) in the assay on SF-539, 0.188 µM (active) in the assay with SNB-75, 1.16 µM (inactive) in the assay on SNB-78 and 11.2 µM (inactive) with TK-10.

The record behind these values is ChEMBL document CHEMBL1201862, “PubChem BioAssay data set” (2004).
